pIC50: −log10 of the molar value.
Target: KRas G12C (Homo sapiens, UniProt P01116, G12C)
Assay: Cellular inhibition of KRas G12C measured by Phospho-ERK in NCI-H358 cells
Type: cell-based
Conditions: pERK(Thr202/Tyr204) normalized with GAPDH, NCI-H358 cells, 3 hours; read-out: IC50
In short: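 Following 8-12 h attachment, NCI-H358 cells got serially diluted compound (0.5% DMSO) for 3 hours. Cells were then fixed, permeabilized with cold methanol, and stained for pERK(Thr202/Tyr204) and GAPDH. Ratios were converted to percent of DMSO control, with IC50 obtained by four-parameter regression.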

Sequence of KRas G12C (P01116 1-188 isoform P01116-2 G12C): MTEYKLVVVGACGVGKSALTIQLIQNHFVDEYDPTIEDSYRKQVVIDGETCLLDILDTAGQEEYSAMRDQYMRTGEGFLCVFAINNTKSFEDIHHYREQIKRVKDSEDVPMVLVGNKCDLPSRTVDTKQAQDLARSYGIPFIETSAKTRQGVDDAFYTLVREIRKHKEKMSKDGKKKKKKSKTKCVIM

SMILES	pIC50
C=CC(=O)N1CCN(c2nc(OC[C@@H]3C[C@@H](OC)CN3C)nc3c2CCN(c2cccc4ccccc24)C3)C[C@@H]1CC#N [Example 327, 2-((S)-1-acryloyl-4-(2-(((2S,4R)-4-methoxy-1-methylpyrrolidin-2-yl)methoxy)-7-(naphthalen-1-yl)-5,6,7,8-tetrahydropyrido[3,4-d]pyrimidin-4-yl)piperazin-2-yl)acetonitrile]	6.00 to 10.00
C=CC(=O)N1CCN(c2nc(OC[C@@H]3C[C@H](O)CN3C)nc3c2CCN(c2cccc4ccccc24)C3)CC1CC#N (stereo partly drawn) [Example 419, 2-(1-acryloyl-4-(2-(((2S,4S)-4-hydroxy-1-methylpyrrolidin-2-yl)methoxy)-7-(naphthalen-1-yl)-5,6,7,8-tetrahydropyrido[3,4-d]pyrimidin-4-yl)piperazin-2-yl)acetonitrile]	6.00 to 10.00
C=CC(=O)N1CCN(c2nc(N3CC[C@H](N(C)C)C3)nc3c2CCN(c2cccc4ccccc24)C3)C[C@@H]1CC#N [Example 403]	6.00 to 10.00
C=CC(=O)N1CCN(c2nc(OCC(CO)N(C)C)nc3c2CCN(c2cc(O)cc4ccccc24)C3)CC1 (stereo not drawn) [Example 55, 1-(4-(2-(2-(dimethylamino)-3-hydroxypropoxy)-7-(3-hydroxynaphthalen-1-yl)-5,6,7,8-tetrahydropyrido[3,4-d]pyrimidin-4-yl)piperazin-1-yl)prop-2-en-1-one]	6.00 to 10.00
C=CC(=O)N1CCN(c2nc(OCCN3CCN(C(C)=O)CC3)nc3c2CCN(c2cc(O)cc4ccccc24)C3)CC1 [Example 37, 1-(4-(2-(2-(4-acetylpiperazin-1-yl)ethoxy)-7-(3-hydroxynaphthalen-1-yl)-5,6,7,8-tetrahydropyrido[3,4-d]pyrimidin-4-yl)piperazin-1-yl)prop-2-en-1-one]	< 6.00
C=CC(=O)N1CCN(c2nc(OC[C@@H]3CCCN3C)nc3c2CCN(c2cccc(C)c2C)C3)C[C@@H]1CC#N [Example 394, 2-((S)-1-acryloyl-4-(7-(2,3-dimethylphenyl)-2-(((S)-1-methylpyrrolidin-2-yl)methoxy)-5,6,7,8-tetrahydropyrido[3,4-d]pyrimidin-4-yl)piperazin-2-yl)acetonitrile]	6.00 to 10.00
C=CC(=O)N1CCN(c2nc(OCCN3CCC(F)C3)nc3c2CCN(c2cc(O)cc4ccccc24)C3)CC1 (stereo not drawn) [Example 49, 1-(4-(2-(2-(3-fluoropyrrolidin-1-yl)ethoxy)-7-(3-hydroxynaphthalen-1-yl)-5,6,7,8-tetrahydropyrido[3,4-d]pyrimidin-4-yl)piperazin-1-yl)prop-2-en-1-one]	< 6.00
C=CC(=O)N1CCN(c2nc(O[C@H](C)CN3CCN(C(C)=O)CC3)nc3c2CCN(c2cc(O)cc4ccccc24)C3)CC1 [Example 36, (R)-1-(4-(2-((1-(4-acetylpiperazin-1-yl)propan-2-yl)oxy)-7-(3-hydroxynaphthalen-1-yl)-5,6,7,8-tetrahydropyrido[3,4-d]pyrimidin-4-yl)piperazin-1-yl)prop-2-en-1-one]	< 6.00
C=CC(=O)N1CCN(c2nc(OC[C@H]3CCCN3C)nc3c2CCN(c2cccc(Cl)c2C(F)(F)F)C3)C[C@@H]1CC#N [Example 319, 2-((S)-1-acryloyl-4-(7-(3-chloro-2-(trifluoromethyl)phenyl)-2-(((R)-1-methylpyrrolidin-2-yl)methoxy)-5,6,7,8-tetrahydropyrido[3,4-d]pyrimidin-4-yl)piperazin-2-yl)acetonitrile]	6.00 to 10.00
C=CC(=O)N1CCN(c2nc(OC(C)CN(C)C)nc3c2CCN(c2cc(O)cc4ccccc24)C3)CC1 (stereo not drawn) [Example 11, 1-(4-(2-((1-(dimethylamino)propan-2-yl)oxy)-7-(3-hydroxynaphthalen-1-yl)-5,6,7,8-tetrahydropyrido[3,4-d]pyrimidin-4-yl)piperazin-1-yl)prop-2-en-1-one]	6.00 to 10.00
C=CC(=O)N1CCN(c2nc(OCCCN3CCOCC3)nc3c2CCN(c2cc(O)cc(Cl)c2F)C3)CC1 [Example 232, 1-(4-(7-(3-chloro-2-fluoro-5-hydroxyphenyl)-2-(3-morpholinopropoxy)-5,6,7,8-tetrahydropyrido[3,4-d]pyrimidin-4-yl)piperazin-1-yl)prop-2-en-1-one]	< 6.00
C=C(F)C(=O)N1CCN(c2nc(OC[C@H]3C[C@@H](OC)CN3C)nc3c2CCN(c2cccc4cccc(C)c24)C3)C[C@@H]1CC#N [Example 519, 2-[(2S)-1-(2-fluoroprop-2-enoyl)-4-[2-[[(2R,4R)-4-methoxy-1-methyl-pyrrolidin-2-yl]methoxy]-7-(8-methyl-1-naphthyl)-6,8-dihydro-5H-pyrido[3,4-d]pyrimidin-4-yl]piperazin-2-yl]acetonitrile]	6.00 to 10.00

The next lines start with the values.

pIC50	SMILES
6.00 to 10.00	C=C(C(=O)N1CCN(c2nc(OC[C@@H]3CCCN3C)nc3c2CCN(c2cccc(C)c2C)C3)C[C@@H]1CC#N)C(F)(F)F [Example 487, 2-((S)-4-(7-(2,3-dimethylphenyl)-2-(((S)-1-methylpyrrolidin-2-yl)methoxy)-5,6,7,8-tetrahydropyrido[3,4-d]pyrimidin-4-yl)-1-(2-(trifluoromethyl)acryloyl)piperazin-2-yl)acetonitrile]
6.00 to 10.00	CC#CC(=O)N1CCN(c2nc(OC[C@@H]3CCCN3C)nc3c2CCN(c2cccc4cccc(C)c24)C3)C[C@@H]1CC#N [Example 458, 2-((S)-1-(but-2-ynoyl)-4-(7-(8-methylnaphthalen-1-yl)-2-(((S)-1-methylpyrrolidin-2-yl)methoxy)-5,6,7,8-tetrahydropyrido[3,4-d]pyrimidin-4-yl)piperazin-2-yl)acetonitrile]
6.00 to 10.00	C=C(NC(C)=O)C(=O)N1CCN(c2nc(OC[C@@H]3CCCN3C)nc3c2CCN(c2cccc4cccc(C)c24)C3)C[C@@H]1CC#N [Example 525, N-(3-((S)-2-(cyanomethyl)-4-(7-(8-methylnaphthalen-1-yl)-2-(((S)-1-methylpyrrolidin-2-yl)methoxy)-5,6,7,8-tetrahydropyrido [3,4-d]pyrimidin-4-yl)piperazin-1-yl)-3-oxoprop-1-en-2-yl)acetamide]
6.00 to 10.00	C=CC(=O)N1CCN(c2nc(OC[C@@H]3CCCN3C)nc3c2CCN(c2cccc4ccc(C)cc24)C3)C[C@@H]1CC#N [Example 326, 2-((S)-1-acryloyl-4-(7-(7-methylnaphthalen-1-yl)-2-(((S)-1-methylpyrrolidin-2-yl)methoxy)-5,6,7,8-tetrahydropyrido[3,4-d]pyrimidin-4-yl)piperazin-2-yl)acetonitrile]
6.00 to 10.00	Cc1cccc2cccc(N3CCc4c(nc(OC[C@@H]5CCCN5C)nc4N4CCN(C(=O)/C=C/c5ccncc5)[C@@H](CC#N)C4)C3)c12 [Example 526, 2-((S)-4-(7-(8-methylnaphthalen-1-yl)-2-(((S)-1-methylpyrrolidin-2-yl)methoxy)-5,6,7,8-tetrahydropyrido[3,4-d]pyrimidin-4-yl)-1-((E)-3-(pyridin-4-yl)acryloyl)piperazin-2-yl)acetonitrile]
< 6.00	C=CC(=O)N1CCN(c2nc(OC[C@H]3CCCCN3C)nc3c2CCN(c2cc(O)cc4ccccc24)C3)CC1 [Example 195, (R)-1-(4-(7-(3-hydroxynaphthalen-1-yl)-2-((1-methylpiperidin-2-yl)methoxy)-5,6,7,8-tetrahydropyrido[3,4-d]pyrimidin-4-yl)piperazin-1-yl)prop-2-en-1-one]
